Assays:
Ball mustard = test: Test 7 postemergence; assay type: in vivo, Neslia paniculata; settings: scale 0-100
Description: (§1) Individual 11.4-cm plastic pots filled with planting medium were seeded with rape, wild radish (Raphanus raphanistruna). tansy mustard (Descurainia pinnata), ball mustard (Neslia paniculata), black mustard (Brassica nigra), yellow mustard, brown mustard, lentils, safflower, flax, sunflower, peanut, vetch, alfalfa, field bean, pea, violet (Viola spp), Kochia (Kochia spp), Russian thistle (Salsola spp), Matricaria spp, groundsel (Senecio spp), shepherdspurse (Capsella bursa-pastoris), nightshade (Solanum spp), sowthistle (Sonchus spp), sugar beet, wheat, "Bonanza" barley and "Morex" barley, Kentucky bluegrass (Poa pratensis), red clover (Trifolium pratense), dandelion (Taraxacum spp) and buckhorn plantain (Plantago lanceolata).
(§2) Plants were treated postemergence with the compound formulated with a non-phytotoxic carrier. Plants were visually rated 18 days after treatment (DAT). Response ratings were based on the scale of 0 to 100 where 0 = no effect, 20 = minimal injury and 100 = complete control.

Alfalfa = test: Test 7 postemergence; assay type: in vivo; settings: scale 0-100
Description: as §1, §2

Bonanza barley = test: Test 7 postemergence; assay type: in vivo; settings: scale 0-100
Description: as §1, §2

Brown mustard = test: Test 7 postemergence; assay type: in vivo; settings: scale 0-100
Description: as §1, §2

Field bean = test: Test 7 postemergence; assay type: in vivo; settings: scale 0-100
Description: as §1, §2

Flax = test: Test 7 postemergence; assay type: in vivo; settings: scale 0-100
Description: as §1, §2

Lentils = test: Test 7 postemergence; assay type: in vivo; settings: scale 0-100
Description: as §1, §2

Morex barley = test: Test 7 postemergence; assay type: in vivo; settings: scale 0-100
Description: as §1, §2

Onicutal mustard = test: Test 7 postemergence; assay type: in vivo; settings: scale 0-100
Description: as §1, §2

Peanut = test: Test 7 postemergence; assay type: in vivo; settings: scale 0-100
Description: as §1, §2

Pea = test: Test 7 postemergence; assay type: in vivo; settings: scale 0-100
Description: as §1, §2

Rape = test: Test 7 postemergence; assay type: in vivo; settings: scale 0-100
Description: as §1, §2

Safflower = test: Test 7 postemergence; assay type: in vivo; settings: scale 0-100
Description: as §1, §2

Sugar beet = test: Test 7 postemergence; assay type: in vivo; settings: scale 0-100
Description: as §1, §2

Sunflower = test: Test 7 postemergence; assay type: in vivo; settings: scale 0-100
Description: as §1, §2

Vetch = test: Test 7 postemergence; assay type: in vivo; settings: scale 0-100
Description: as §1, §2

Wheat = test: Test 7 postemergence; assay type: in vivo; settings: scale 0-100
Description: as §1, §2

Yellow mustard = test: Test 7 postemergence; assay type: in vivo; settings: scale 0-100
Description: as §1, §2

Sheperdspurse = test: Test 7 postemergence; assay type: in vivo, Capsella bursa-pastoris; settings: scale 0-100
Description: as §1, §2

Buckhorn plantain = test: Test 7 postemergence; assay type: in vivo, Plantago lanceolata; settings: scale 0-100
Description: as §1, §2

Boston fern = test: Test 9 postemergence; assay type: in vivo, Nephrolepis exalata; settings: scale 0-100
Description: (§3) Plastic windowsill pots containing planting medium were seeded with bahiagrass, bindweed (Convolvulus spp), guinea grass (Panicum maximum), large crabgrass (Digitaria sanguinalis) and pigweed (Amaranthus spp). Individual 15-cm plastic pots contained sandbur (Cenchrus echinatus), Mikania cordata, Boston fern (Nephrolepis exalata), quackgrass (Agropyron repens), elephantgrass (Pennisetum purpureum) and sowthistle (Sonchus spp) plants.
(§4) Plants were treated postemergence with Compound I formulated in a non-phytotoxic solvent. Plants were visually rated 22 days after treatment (DAT). Injury and weed control ratings were based on the scale of 0 to 100 where 0 = no effect, 20 = minimal control and 100 = complete control.

Elephantgrass = test: Test 9 postemergence; assay type: in vivo, Pennisetum purpureum; settings: scale 0-100
Description: as §3, §4

Pigweed = test: Test 9 postemergence; assay type: in vivo, Amaranthus spp; settings: 16 g/ha, scale 0-100
Description: as §3, §4

Purple nutsedge = test: Test 11 windowsill flats, postemergence; assay type: in vivo, Cyperus rotundus; settings: Postemergence 32 g/ha, 0.25% X-77 surfactant, scale 0-100
Description: (§5) Budded citrus seedlings were planted in 30-liter plastic pots which were also seeded with sandbur, guineagrass, narrowleaf panicum, common ragweed, yellow nutsedge, purple nutsedge and bindweed. Compound I was applied preemergence and postemergence to the weeds. Treatments were sprayed to simulate the trunk-to-trunk herbicide application method used in some citrus groves. The compound was also applied postemergence to weeds grown in windowsill flats. The flats were filled with planting medium and seeded with morningglory (Ipomoea spp.). purple nutsedge (Cyperus rotundus), pigweed (Amaranthus spp.), bindweed (Convolvulus spp.), narrowleaf panicum (Panicum maximum), common ragweed (Ambrosia artemisiifolia), sandbur (Cenchrus echinatus), itchgrass (Rottboellia exaltata), johnsongrass (Sorghum halepense), guineagrass (Panicum maximum), smooth crabgrass (Digitaria ischaemum), broadleaf signalgrass (Brachiaria platyphylla), bermudagrass (Cynodon dactylon), goosegrass (Eleusine indica), large crabgrass (Digitaria sanguinalis) and yellow nutsedge (Cyperus esculentus).
(§6) The compound was formulated and sprayed with 0.25% X-77 surfactant in water. Plants were visually rated 21 and 29 days after treatment and compared with appropriate controls. Injury ratings were based on the scale of 0 to 100, where 0 indicates no effect, 20 indicates minimum effect and 100 indicates complete control. […]

Common ragweed = test: Test 11 windowsill flats, postemergence; assay type: in vivo, Ambrosia artemisiifolia; settings: Postemergence 32 g/ha, 0.25% X-77 surfactant, scale 0-100
Description: as §5, §6

Trumpetcreeper = test: Test 12 over-the-top application, postemergence; assay type: in vivo, Campsis radicans; settings: 26 days after treatment, scale 0-100
Text: The object of this test was to evaluate the safety of sour lemon to the over-the-top application of Compound I and control of lantana (Lantana camara) and trumpetcreeper (Campsis radicans). Plants were sprayed postemergence with Compound I formulated in a non-phytotoxic solvent. Treated plants were visually rated 26 days after treatment and compared with appropriate controls. Injury ratings were based on the scale of 0 to 100, where 0 indicates no effect, 20 indicates minimal effect and 100 indicates complete control.

Structure (SMILES): COC(=O)c1cccnc1S(=O)(=O)NC(=O)Nc1nc(OC)cc(OC)n1 [Compound I, 2-[[(4,6-dimethoxypyrimidin-2-yl)aminocarbonyl]aminosulfonyl]-3-pyridinecarboxylic acid, methyl ester]
- Plant Injury Rating 18 DAT (Ball mustard; 16 g/ha): 100
- Plant Injury Rating 18 DAT (Ball mustard; 32 g/ha): 100
- Plant Injury Rating 18 DAT (Alfalfa; 16 g/ha): 100
- Plant Injury Rating 18 DAT (Alfalfa; 32 g/ha): 100
- Plant Injury Rating 18 DAT (Bonanza barley; 16 g/ha): 90
- Plant Injury Rating 18 DAT (Bonanza barley; 32 g/ha): 100
- Plant Injury Rating 18 DAT (Brown mustard; 16 g/ha): 100
- Plant Injury Rating 18 DAT (Brown mustard; 32 g/ha): 100
- Plant Injury Rating 18 DAT (Field bean; 16 g/ha): 100
- Plant Injury Rating 18 DAT (Field bean; 32 g/ha): 100
- Plant Injury Rating 18 DAT (Flax; 16 g/ha): 100
- Plant Injury Rating 18 DAT (Flax; 32 g/ha): 100
- Plant Injury Rating 18 DAT (Lentils; 16 g/ha): 100
- Plant Injury Rating 18 DAT (Lentils; 32 g/ha): 100
- Plant Injury Rating 18 DAT (Morex barley; 16 g/ha): 90
- Plant Injury Rating 18 DAT (Morex barley; 32 g/ha): 100
- Plant Injury Rating 18 DAT (Onicutal mustard; 16 g/ha): 100
- Plant Injury Rating 18 DAT (Onicutal mustard; 32 g/ha): 100
- Plant Injury Rating 18 DAT (Peanut; 16 g/ha): 100
- Plant Injury Rating 18 DAT (Peanut; 32 g/ha): 100
- Plant Injury Rating 18 DAT (Pea; 16 g/ha): 100
- Plant Injury Rating 18 DAT (Pea; 32 g/ha): 100
- Plant Injury Rating 18 DAT (Rape; 16 g/ha): 80
- Plant Injury Rating 18 DAT (Rape; 32 g/ha): 100
- Plant Injury Rating 18 DAT (Safflower; 16 g/ha): 100
- Plant Injury Rating 18 DAT (Safflower; 32 g/ha): 100
- Plant Injury Rating 18 DAT (Sugar beet; 16 g/ha): 100
- Plant Injury Rating 18 DAT (Sugar beet; 32 g/ha): 100
- Plant Injury Rating 18 DAT (Sunflower; 16 g/ha): 100
- Plant Injury Rating 18 DAT (Sunflower; 32 g/ha): 100
- Plant Injury Rating 18 DAT (Vetch; 16 g/ha): 100
- Plant Injury Rating 18 DAT (Vetch; 32 g/ha): 100
- Plant Injury Rating 18 DAT (Wheat; 16 g/ha): 100
- Plant Injury Rating 18 DAT (Wheat; 32 g/ha): 100
- Plant Injury Rating 18 DAT (Yellow mustard; 16 g/ha): 100
- Plant Injury Rating 18 DAT (Yellow mustard; 32 g/ha): 100
- Plant Injury Rating 18 DAT (Sheperdspurse; 16 g/ha): 100
- Plant Injury Rating 18 DAT (Sheperdspurse; 32 g/ha): 100
- Plant Injury Rating 18 DAT (Buckhorn plantain; 16 g/ha): 30
- Plant Injury Rating 18 DAT (Buckhorn plantain; 32 g/ha): 50
- Plant Injury Rating 22 DAT (Boston fern; 8 g/ha): 40
- Plant Injury Rating 22 DAT (Boston fern; 16 g/ha): 50
- Plant Injury Rating 22 DAT (Boston fern; 32 g/ha): 80
- Plant Injury Rating 22 DAT (Elephantgrass; 8 g/ha): 0
- Plant Injury Rating 22 DAT (Elephantgrass; 16 g/ha): 50
- Plant Injury Rating 22 DAT (Elephantgrass; 32 g/ha): 70
- Plant Injury Rating 22 DAT (Pigweed): 90
- Injury ratings (Purple nutsedge): 100
- Injury ratings (Common ragweed): 0
- Injury ratings (Trumpetcreeper; 8 g/ha): 0
- Injury ratings (Trumpetcreeper; 16 g/ha): 20
- Injury ratings (Trumpetcreeper; 32 g/ha): 40
